Literature values, collected in US5883103A, “Oral acyclovir delivery” (priority 1995, dated 1999).

What was measured:
[1] = system: thymidine kinase (TK) expressed by uninfected normal cells
[2] = system: herpes simplex types I (HSV-1)
[3] = system: herpes simplex virus (HSV), cytomegalovirus (CMV) and varicella-zoster
varicella-zoster = details: in vivo
[4] = system: TK encoded by HSV, varicella zoster, and EBV
[5] = oral
[6] = system: herpes simplex types 2 (HSV-2)
[7] = system: cellular α-DNA polymerase; details: compared with viral DNA polymerase

| Structure (SMILES) | substrate for TK of uninfected normal cells [1] | inhibition of EBV (Epstein-Barr virus (EBV)) | inhibition of HSV-1 [2] | safety and efficacy in treatment of viral disease ([3]; immunocompromised and immunocompetent patients) | suppression of reactivated or newly acquired viral diseases ([3]; oral administration, genital herpes simplex, shingles, acute varicella-zoster) | morbidity and mortality from viral disease ([3]; pre- and postoperative prophylaxis, long-term (>6 months) oral) | toxicity in vitro for uninfected normal cells (uninfected normal cells) | effect on symptoms of acute varicella-zoster disease (varicella-zoster) | conversion by viral TK [4] | absorption [5] | bioavailability [5] | inhibition of varicella zoster (varicella zoster) | inhibition of CMV (cytomegalovirus (CMV)) | inhibition of HSV-2 [6] | effect on viral DNA polymerase (viral DNA polymerase) | effect on cellular α-DNA polymerase [7] |
| --- | --- | --- | --- | --- | --- | --- | --- | --- | --- | --- | --- | --- | --- | --- | --- | --- |
| Nc1nc2c(ncn2COCCO)c(=O)[nH]1 [acyclovir, 2-amino-1,9-dihydro-9-[(2-hydroxy-ethoxy)methyl]-6H-purin-6-one] | not a substrate | inhibits | inhibits | safe and effective | suppression of reactivated or newly acquired viral diseases | reduced | much less toxic in vitro for uninfected normal cells | reduces fever, chronic pain, the progression of rash and accelerates cutaneous healing | converts acyclovir into acyclovir monophosphate | slowly and erratically absorbed | 15-30% | inhibits | inhibits | inhibits |  |  |
| Nc1nc2c(ncn2COCCOP(=O)(O)OP(=O)(O)OP(=O)(O)O)c(=O)[nH]1 [Acyclovir triphosphate] |  |  |  |  |  |  |  |  |  |  |  |  |  |  | interferes with viral DNA polymerase | to a lesser degree |
